Test results as given in patent publication US11912660B2, “S6K1 protein kinase inhibitors as cancer therapeutics” (Xavier University of Louisiana, priority 2020, dated 2024).
Read-outs that look alike come from different tables or passages of the source.

Assays:
[1] = test system: ER positive breast cancer cell line MCF7; experiment: MTT assay growth inhibition; type: cell-based; settings: FIG. 1B
Description: (§1) Cell viability assays used the methods outlined in an earlier publication: Identification of New Mono/Dihydroxynaphthoquinone as Lead Agents that Inhibit the Growth of Refractive and Triple-negative Breast Cancer Cell lines. Schroeder, R.; Sfondouris, M.; Goyal, N.; Komati, R.; Weerathunga, A.; Gettridge, C.; Stevens, C. L. K.; Jones, F. E.; Sridhar, J. ACS Omega, 2019 Jun 19. 4(6):10610-10619.
(§2) RPS6K1 is known to play a critical role in several cancers including HER2 positive breast cancer, ER positive breast cancer, prostate cancer and small cell lung cancer. To verify whether RPS6K1 inhibitors of the instant disclosure could inhibit growth of these types of cancers, MTT assays were performed using the HER2 positive breast cancer cell line SKBR3, ER positive breast cancer cell line MCF7, and the prostate cancer cell line DU-145. The MTT assay is a colorimetric assay for assessing cell metabolic activity. NAD(P)H-dependent cellular oxidoreductase enzymes may, under defined conditions, reflect the number of viable cells present. These enzymes are capable of reducing the tetrazolium dye MTT 3-(4,5-dimethylthiazol-2-yl)-2,5-diphenyltetrazolium bromide to its insoluble formazan, which has a purple color.

[2] = test system: HER2 positive breast cancer cell line SKBR3; experiment: MTT assay growth inhibition; type: cell-based; settings: for IC50: Homo sapiens; for growth inhibition: SKBR3, MTT, FIG. 1A
Description: as §1, §2

RPS6K1 [3] = biological target: T1, RPS6K1 (Homo sapiens (Human), UniProt P23443); experiment: High-throughput screening and IC50 determination for inhibition of RPS6K1 (FRET based assay by ThermoFisher); type: biochemical; settings: table head prints 10 µM; text says 10 μM concentration
RPS6K1 [4] = biological target: T1, RPS6K1; experiment: as above; type: biochemical; settings: dose response curve
Description: These three compounds were then subjected to IC50 value determination (dose response curve) using the same FRET based assay by ThermoFisher (Table 5).

[5] = test system: prostate cancer cell line DU-145; experiment: MTT assay growth inhibition; type: cell-based; settings: DU-145, MTT, FIG. 1C
Description: as §1, §2

[6] = SK-BR-3, SKBR3 breast cancer cell line, MTT, read-out: IC50 values of growth inhibition

T1 sequence (P23443 whole entry): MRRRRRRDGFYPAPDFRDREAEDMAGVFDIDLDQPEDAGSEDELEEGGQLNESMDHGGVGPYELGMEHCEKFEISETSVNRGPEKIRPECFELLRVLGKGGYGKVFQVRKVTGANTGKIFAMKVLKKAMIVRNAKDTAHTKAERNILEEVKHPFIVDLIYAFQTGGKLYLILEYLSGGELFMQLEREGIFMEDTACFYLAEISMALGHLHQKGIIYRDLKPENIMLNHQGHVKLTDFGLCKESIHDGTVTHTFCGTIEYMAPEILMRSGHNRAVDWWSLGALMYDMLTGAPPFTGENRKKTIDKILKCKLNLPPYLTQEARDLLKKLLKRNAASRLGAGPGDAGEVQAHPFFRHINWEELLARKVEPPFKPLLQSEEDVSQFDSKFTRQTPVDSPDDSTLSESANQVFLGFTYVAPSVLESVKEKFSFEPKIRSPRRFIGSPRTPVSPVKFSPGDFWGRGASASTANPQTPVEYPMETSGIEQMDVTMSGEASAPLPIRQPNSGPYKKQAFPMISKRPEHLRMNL

IC50 [2, 6] [µM]	RPS6K1% inhibition at 10 µM compound concentration (RPS6K1 [3]) [%]	IC50 (RPS6K1 [4]) [µM]	Compound	growth inhibition [1]	growth inhibition [2]	growth inhibition [5]	IC50 ([2]; SK-BR-3, read-out: IC50 values of growth inhibition) [µM]
3.3	71	3.48	Nc1cc(NC(=O)c2ccccc2)cc2c1C(=O)NC2=O [RJ-19]	not as effective	showed inhibition	–	–
1.9	86	> 2.78	Nc1cc(NC(=O)c2ccccc2Br)cc2c1C(=O)NC2=O [RJ-22]	excellent growth inhibition	excellent growth inhibition	excellent growth inhibition	–

Compound	IC50 [2, 6] [µM]	RPS6K1% inhibition at 10 µM compound concentration (RPS6K1 [3]) [%]	IC50 (RPS6K1 [4]) [µM]	growth inhibition [1]	growth inhibition [2]	growth inhibition [5]	IC50 ([2]; SK-BR-3, read-out: IC50 values of growth inhibition) [µM]
Nc1cc(NC(=O)c2cc([N+](=O)[O-])cc([N+](=O)[O-])c2)cc2c1C(=O)NC2=O [RJ-28]	–	79	2.56	excellent growth inhibition	excellent growth inhibition	excellent growth inhibition	4.7
